Measurements: patent US11617366B2, “Solvents for agricultural applications and pesticide formulations” (Dow Global Technologies LLC, priority 2017, dated 2023)
Like-named read-outs stand apart in the source and are kept apart here.

Experiment: Solubility of pesticide powders in solvents, 2% stepwise increments
Conditions: for Dissolving power: compared with comparative solvents DMSO and DMAA810, for each of the active ingredients evaluated
Method: The solubility of various pesticides in these solvents or solvent components are evaluated.

[1] = solvent DEAC (N,N-diethyl acetamide), last concentration before powder not dissolved, 2% steps, no more than 2% lower than actual solubility
[2] = solvent DMAA810, last concentration before powder not dissolved, 2% steps, no more than 2% lower than actual solubility
[3] = solvent DMPA (N,N-dimethyl propanamide), last concentration before powder not dissolved, 2% steps, no more than 2% lower than actual solubility
[4] = solvent DMSO, last concentration before powder not dissolved, 2% steps, no more than 2% lower than actual solubility

Row | Compound | Solubility in DEAC [1] | Solubility in DMAA810 [2] | Solubility in DMPA [3] | Solubility in DMSO [4] | Dissolving power | Solubility in DEAC | Solubility in DMAA810 | Solubility in DMPA | Solubility in DMSO
1 | Abamectin | 50 weight % | 38 weight % | 51 weight % | 21 weight % | – | – | – | – | –
2 | CCC(=O)N(C)C [DMPA, N,N-dimethyl propanamide] | – | – | – | – | stronger | – | – | – | –
3 | CC(C)N1C(=O)N(c2ccccc2)CS/C1=N\C(C)(C)C [Buprofezin] | – | – | – | – | – | 31 weight % | 22 weight % | 33 weight % | 1 weight %
4 | CCCCC(C#N)(Cn1cncn1)c1ccc(Cl)cc1 (stereo not drawn) [Myclobutanil] | 57 weight % | 42 weight % | 58 weight % | 57 weight % | – | – | – | – | –
5 | CCN(CC)C(C)=O [DEAC, N,N-diethyl acetamide] | – | – | – | – | stronger | – | – | – | –
6 | Cc1c(COC(=O)[C@@H]2[C@H](/C=C(\Cl)C(F)(F)F)C2(C)C)cccc1-c1ccccc1 (racemic) [Bifenthrin] | 50 weight % | 33 weight % | 47 weight % | 7 weight % | – | – | – | – | –
7 | CC(C)(C)C(O)(CCc1ccc(Cl)cc1)Cn1cncn1 (stereo not drawn) [Tebuconazole] | – | 37 weight % | – | 32 weight % | – | 51 weight % | – | 54 weight % | –
8 | COC(=O)N(OC)c1ccccc1COc1ccn(-c2ccc(Cl)cc2)n1 [Pyraclostrobin] | 54 weight % | 42 weight % | 63 weight % | 40 weight % | – | – | – | – | –
9 | CC(C)(C)C(=O)C(Oc1ccc(Cl)cc1)n1cncn1 (stereo not drawn) [Triazolone] | 54 weight % | 39 weight % | 58 weight % | 43 weight % | – | – | – | – | –
